Results on six compounds are retold here after patent EP0334853B1, “SOFT STEROIDS HAVING ANTI-INFLAMMATORY ACTIVITY” (BODOR, Nicholas S., priority 1987, dated 1989).

The test system of this test is skin of the flexor surface of the forearm. The test can be described thus: Topical vasoconstriction test (blanching, method of McKenzie and Stoughton). The test is classed as in vivo. The conditions noted are these: for BLANCHING STUDIES Value (average estimation values for the blanching activity): 0.03M solution in acetone/isopropylmyristate 90:10, 0.05 milliliter on 1 cm patch, occluded, patch removed after about six hours, blanching score one hour later, average of duplicate, except entries marked ** (duplicate experiment not conducted). The method, then:
TOPICAL VASOCONSTRICTION TEST
A topical vasoconstriction test was conducted using the general method of McKenzie, A.W. and R.B. Stoughton, Arch. Dermatol, 86, (1962), 608-10. The topical vasoconstriction test was done in order to evaluate the anti-inflammatory potency of the novel compounds of the present invention. A 0.03M solution of the test compound in acetone/isopropylmyristate 90:10 volume/volume was prepared. An aliquot of 0.05 milliliter was applied to a circular patch, one centimeter in diameter, which was in turn applied against the skin of the flexor surface of the forearm (previously cleansed with ethanol 95% and dried). This application was occluded with a water-impervious film. The patch was removed after about six hours and the blanching score was evaluated one hour later. Two control compounds were used at the same time and under the same conditions. The control compounds were hydrocortisone 17-valerate and cortienic acid 17-ethylcarbonate chloromethylester. The experiment was made in duplicate and the average estimation values for the blanching activity are reported in Table I. The left column of Table I indicates the 17α-substituent of the structure: [drawing 44]

Take `CCO[C@]1(C(=O)OCCl)CC[C@H]2[C@@H]3CCC4=CC(=O)CC[C@]4(C)[C@H]3[C@@H](O)C[C@@]21C` [-OCH₂H₅, chloromethyl 11β-hydroxy-17α-ethoxyandrost-4-en-3-one-17β-carboxylate]: the “BLANCHING STUDIES Value (average estimation values for the blanching activity)” value (“BLANCHING STUDIES Value” below) is recorded as 0.75. With `CO[C@]1(C(=O)OCCl)CC[C@H]2[C@@H]3CCC4=CC(=O)CC[C@]4(C)[C@H]3[C@@H](O)C[C@@]21C` [-OCH₃, chloromethyl 11β-hydroxy-17α-methoxyandrost-4-en-3-one-17β-carboxylate], the “activity (blanching), determined in a previous study” value (previous study, no details given) is “* The 17-methoxy homologue was determined in a previous study to have low activity”. As for `CCCO[C@]1(C(=O)OCCl)CC[C@H]2[C@@H]3CCC4=CC(=O)CC[C@]4(C)[C@H]3[C@@H](O)C[C@@]21C` [-OC₃H₇, Chloromethyl 11β-hydroxy-17α-propoxyandrost-4-en-3-one-17β-carboxylate], the “BLANCHING STUDIES Value” value is on record as 1 **. As to `CCCCO[C@]1(C(=O)OCCl)CC[C@H]2[C@@H]3CCC4=CC(=O)CC[C@]4(C)[C@H]3[C@@H](O)C[C@@]21C` [-OC₄H₉, Chloromethyl 17α-butoxy-11β-hydroxyandrost-4-en-3-one-17β-carboxylate], the “BLANCHING STUDIES Value” value is reported as 0.5. The same measure, in the same setting: with `CCOC(=O)O[C@]1(C(=O)OCCl)CC[C@H]2[C@@H]3CCC4=CC(=O)CC[C@]4(C)[C@H]3[C@@H](O)C[C@@]21C` [carbonate, cortienic acid 17-ethylcarbonate chloromethylester, reference compound] the figure was 1.75. Same read-out and setting: the same measure for “hydrocortisone 17-valerate [reference compound]”: 1.5.
